Source: patent US6184370A, “Receptor-binding determinant from leukaemia inhibitory factor” (Amrad Corporation Limited, priority 1994, dated 2001)

How the values were obtained:
M1 cells [1] = experiment: Serum dose inhibition of M1 colony differentiation by normal mouse serum (mLBP); assay type: cell-based, murine; settings: up to 200 U/ml hLIF
Method: For serum dose inhibition assays, the specific activity of each LIF preparation was determined by titration in cultures of M1 cells. Aliquots of normal mouse serum (containing approximately 5 μg/ml mLBP) were then added in serial 2-fold dilutions to cultures of M1 cells that also contained a just maximal concentration (200 U) of mLIF (SEQ. ID. NO:1), hLIF (SEQ. ID. NO:2) or m-hLIF hybrid. Assays including mLIF and hLIF gave identical results when either crude mouse serum or a highly purified preparation of mLBP was used. Hybrids were assessed for mLIF or hLIF character from the dilution of serum required to block 50% of their M1 cell differentiation-inducing activity.
A 1:4 to 1:8 dilution of normal mouse serum (equivalent to ~0.5-1 μg/ml mLBP) is required to block 50% of the M1 differentiation-inducingactivity of up to 200 U/ml mLIF, whereas, due to the higher affinity of hLIF for mLBP, a 1:8192 dilution of serum (~0.6 ng/ml mLBP) is sufficient to block 50% of the M1 activity of up to 200 U/ml hLIF. This ability of mLBP to inhibit the differentiation-inducing activity of LIF in a species-specific manner was utilized as a second assay that distinguished hLIF from mLIF. […]

M1 cells [2] = settings: background statement; cited from earlier work
[3] = test system: murine M1 leukaemic colonies; experiment: M1 differentiation assay (specific biological activity); assay type: cell-based
Method: The functional activity of the m-hLIF hybrids was assayed by their ability to induce differentiation in murine M1 leukaemic colonies. M1 differentiation assays were performed as described (Metcalf et al, 1988). The specific activity of each hybrid was expressed as the units of M1 differentiation-inducing activity per milligram of protein.
The protein concentration of each purified sample was determined by amino acid analysis, and the amount of biologically active protein in each sample was estimated by its ability to induce differentiation in mouse M1 myeloid leukaemic colonies. An internal standard of mLIF (10^4 U/ml) was used to normalise all M1 cell bioassays (50 U/ml of LIF is defined as the concentration of LIF required for half maximal stimulation).

[4] = test system: mLBP (soluble mLIF-R α-chain); experiment: Competitive inhibition of [125I]mLIF binding to mLBP; parameters: species or system mouse; settings: in words
Method: Normal mouse serum was used as a source of mLBP. For competitive binding experiments, 50 μl aliquots of unlabelled LIF or a mouse-human LIF hybrid were added to 96-well filtration assay plates containing a 0.65 micron Durapore membrane (Millipore, Mass., U.S.A.) with 20 μl aliquots of a 1/10 to 1/20 dilution of normal mouse serum, 10 μl radiolabelled ligand and 25 μl Concanavalin-A Sepharose 4B (ConA-Sepharose, Pharmacia, Uppsala) (diluted 1:4 in 100 mM sodium acetate pH6.0 containing 1 mM MnCl2, 1 mM MgCl2 and 1 mM CaCl2; this and all subsequent buffers contained 0.02% w/v sodium azide and 0.02% v/v Tween 20) and incubated at room temperature overnight with agitation. Bound and free radioactivity were separated by vacuum filtration of the supernatant and the ConA-Sepharose pellet was washed once with 200 μl cold PBS. Assay plates containing the cell pellet were then exposed to a phosphor screen (Molecular Dynamics, Calif., U.S.A.) for 16-24 hours and the results quantified using Imagequant version 3.0 software (Molecular Dynamics).
The structural integrity of all m-hLIF chimeras was also verified by evaluating their ability to bind correctly to the mLIF-R α-chain.

[5] = test system: mLBP (soluble mLIF-R α-chain); experiment: Competitive inhibition of [125I]hLIF binding to mLBP (hLIF-like activity score); parameters: species or system mouse; settings: logarithmic scale, hLIF = 100%, mLIF = 0%; mean±SEM
Excerpt: Reference is made herein to the subject molecule having at least about 35% hLIF-like activity. More preferably, the molecule has at least about 50% hLIF-like activity and even more preferably at least about 70% hLIF-like activity. hLIF-like activity is defined in terms of the ability for a molecule to compete for ^125 I-hLIF binding to mLBP based on the equation: [formula]
wherein xm is the dose of unlabelled mLIF; xh is the dose of unlabelled hLIF; xc is the dose of the molecule (e.g. protein, polypeptide or peptide) required to give 50% inhibition of ^125 I-hLIF binding to mLBP.
Normal mouse serum was used as a source of mLBP. […] Bound and free radioactivity were separated by vacuum filtration of the supernatant and the ConA-Sepharose pellet was washed once with 200 μl cold PBS. Assay plates containing the cell pellet were then exposed to a phosphor screen (Molecular Dynamics, Calif., U.S.A.) for 16-24 hours and the results quantified using Imagequant version 3.0 software (Molecular Dynamics). […]

ability to compete for [125I]mLIF binding to mLBP [4]: approximately equal ability | hLIF-like activity (percentage human score) calculated from ID50 for inhibition of [125I]hLIF binding to mLBP [5]: 100%
Substance: hLIF: human leukaemia inhibitory factor, H1-180 (SEQ. ID. NO:2), recombinant from E. coli
mLBP concentration equivalent to serum dilution blocking 50% of M1 activity (M1 cells [1]): ~ 0.6 ng/ml | mLBP more potent inhibitor of hLIF than mLIF (inhibition of biological responses to LIF) (M1 cells [2]): approximately 1000 fold | biological activity in a mouse cell bioassay, in words [3]: nearly equal biological activities | specific biological activity (units of LIF activity per milligram of protein) ([3]; mouse M1 cells, 50 U/ml = half maximal stimulation): 1-3×10^8 U/mg
